In patent US9353051B2, “Antiviral drugs for treatment or prevention of dengue infection” (Siga Technologies Inc., priority 2007, dated 2016):
pEC50: −log10 of the molar value.

Test system: Dengue-2 (Strain New Guinea C)
Assay: viral yield assay against Dengue-2 in Vero cells
Type: cell-based
Settings: Dengue virus; Vero cells, MOI 0.1, harvested 48 hours post infection; read-out: Activity (anti-dengue 2 viral activity, EC50)
Outline: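 Vero cells infected with dengue-2 at MOI 0.1 were treated with compound (DMSO control) at 37° C., harvested 48 h post infection and titered on Vero cells.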

| SMILES | pEC50 |
| --- | --- |
| O=C(Cn1cnc2ccccc2c1=O)Nc1ccc(S(=O)(=O)NCC(F)(F)F)cc1 [Compound 30, 2-(4-Oxo-4H-quinazolin-3-yl)-N-[4-(2,2,2-trifluoro-ethylsulfamoyl)-phenyl]-acetamide] | 4.60 to 5.00 |
| O=C(Cn1cnc2ccccc2c1=O)Nc1ccc(S(=O)(=O)N2CCCCC2)cc1 [Compound 52, 2-(4-Oxo-4H-quinazolin-3-yl)-N-[4-(piperidine-1-sulfonyl)-phenyl]-acetamide] | < 4.60 |
| CCN(CC)S(=O)(=O)c1ccc(NC(=O)Cn2cnc3c(C)cccc3c2=O)cc1 [Compound 26, N-(4-Diethylsulfamoyl-phenyl)-2-(8-methyl-4-oxo-4H-quinazolin-3-yl)-acetamide] | 4.60 to 5.00 |
| O=C(Cn1cnc2ccccc2c1=O)Nc1ccc(S(=O)(=O)Nc2ncccn2)cc1 [Compound 39, 2-(4-Oxo-4H-quinazolin-3-yl)-N-[4-(pyrimidin-2-ylsulfamoyl)-phenyl]-acetamide] | < 4.60 |
| CCN(CC)S(=O)(=O)c1ccc(NC(=O)CNC(=O)c2cc(C)cc(C)c2)cc1 [Compound 63, N-[(4-Diethylsulfamoyl-phenylcarbamoyl)-methyl]-3,5-dimethyl-benzamide] | < 4.60 |
| CCN(CC(=O)Nc1ccc(S(=O)(=O)N(C)C)cc1)Cc1nc2ccccc2c(=O)[nH]1 [Compound 115, N-(4-Dimethylsulfamoyl-phenyl)-2-[ethyl-(4-oxo-3,4-dihydro-quinazolin-2-ylmethyl)-amino]-acetamide] | < 4.60 |
| CCN(CC)S(=O)(=O)c1ccc(NC(=O)CNC(=O)c2ccc3ccccc3c2)cc1 [Compound 74, Naphthalene-2-carboxylic acid[(4-diethylsulfamoyl-phenylcarbamoyl)-methyl]-amide] | < 4.60 |
| CCN(CC)S(=O)(=O)c1ccc(NC(=O)CNC(=O)c2ccc(-c3ccccc3)cc2)cc1 [Compound 80, Biphenyl-4-carboxylic acid [(4-diethylsulfamoyl-phenylcarbamoyl)-methyl]-amide] | < 4.60 |
| CCN(CC)S(=O)(=O)c1ccc(N(C)C)c(NC(=O)Cn2cnc3ccccc3c2=O)c1 [Compound 88, N-(5-Diethylsulfamoyl-2-dimethylamino-phenyl)-2-(4-oxo-4H-quinazolin-3-yl)-acetamide] | < 4.60 |
| O=C(Cn1cnc2cc(F)ccc2c1=O)Nc1ccc(S(=O)(=O)N2CCCCCC2)cc1 [Compound 139, N-[4-(Azepane-1-sulfonyl)-phenyl]-2-(7-fluoro-4-oxo-4H-quinazolin-3-yl)-acetamide] | < 4.60 |
| CCN(CC)S(=O)(=O)c1ccc(CNC(=O)Cn2cnc3ccccc3c2=O)cc1 [Compound 69, N-(4-Diethylsulfamoyl-benzyl)-2-(4-oxo-4H-quinazolin-3-yl)-acetamide] | < 4.60 |
| CCN(CC)S(=O)(=O)c1ccc(NC(=O)Cn2cnc3sccc3c2=O)cc1 [Compound 5, N-(4-Diethylsulfamoyl-phenyl)-2-(4-oxo-4H-thieno[2,3-d]pyrimidin-3-yl)-acetamide] | 5.00 to 6.00 |
| CCN(CC)S(=O)(=O)c1ccc(NC(=O)Cn2cnc3cc(Cl)ccc3c2=O)cc1 [Compound 23, 2-(7-Chloro-4-oxo-4H-quinazolin-3-yl)-N-(4-diethylsulfamoyl-phenyl)-acetamide] | 4.60 to 5.00 |
| NS(=O)(=O)c1ccc(NC(=O)Cn2c(=O)cnc3ccccc32)cc1 [Compound 119, 2-(2-Oxo-2H-quinoxalin-1-yl)-N-(4-sulfamoyl-phenyl)-acetamide] | < 4.60 |
| O=C(Cn1cnc2ccc([N+](=O)[O-])cc2c1=O)Nc1ccc(S(=O)(=O)N2CCOCC2)cc1 [Compound 135, N-[4-(Morpholine-4-sulfonyl)-phenyl]-2-(6-nitro-4-oxo-4H-quinazolin-3-yl)-acetamide] | < 4.60 |
| NS(=O)(=O)c1ccc(NC(=O)COC(=O)CCc2nc3ccccc3c(=O)[nH]2)cc1 [Compound 116, 3-(4-Oxo-3,4-dihydro-quinazolin-2-yl)-propionic acid (4-sulfamoyl-phenylcarbamoyl)-methyl ester] | < 4.60 |
| CC(C)(C)NS(=O)(=O)c1cccc(NC(=O)Cn2cnc3ccccc3c2=O)c1 [Compound 55, N-(3-tert-Butylsulfamoyl-phenyl)-2-(4-oxo-4H-quinazolin-3-yl)-acetamide] | < 4.60 |
| CCN(CC)S(=O)(=O)c1ccc(NC(=O)CSc2nc3ccccc3c(=O)n2CC)cc1 [Compound 64, N-(4-Diethylsulfamoyl-phenyl)-2-(3-ethyl-4-oxo-3,4-dihydro-quinazolin-2-ylsulfanyl)-acetamide] | < 4.60 |
| O=C(COC(=O)Cn1cnc2ccccc2c1=O)Nc1ccc(S(=O)(=O)N2CCCC2)cc1 [Compound 124, (4-Oxo-4H-quinazolin-3-yl)-acetic acid [4-(pyrrolidine-1-sulfonyl)-phenylcarbamoyl]-methyl ester] | < 4.60 |
| Cc1cc(C)nc(NS(=O)(=O)c2ccc(NC(=O)Cn3cnc4ccccc4c3=O)cc2)n1 [Compound 33, N-[4-(4,6-Dimethyl-pyrimidin-2-ylsulfamoyl)-phenyl]-2-(4-oxo-4H-quinazolin-3-yl)-acetamide] | < 4.60 |

| SMILES | pEC50 |
| --- | --- |
| COC(=O)CNS(=O)(=O)c1ccc(NC(=O)Cn2cnc3ccccc3c2=O)cc1 [Compound 54, {4-[2-(4-Oxo-4H-quinazolin-3-yl)-acetylamino]-benzene-sulfonylamino}-acetic acid methyl ester] | < 4.60 |
| CC(NS(=O)(=O)c1ccc(NC(=O)Cn2nnc3ccccc3c2=O)cc1)C1CC2CCC1C2 (stereo not drawn) [Compound 83, N-[4-(1-Bicyclo[2.2.1]hept-2-yl-ethylsulfamoyl)-phenyl]-2-(4-oxo-4H-benzo[d][1,2,3]triazin-3-yl)-acetamide] | < 4.60 |
| O=C(Cn1cnc2ccccc2c1=O)Nc1ccc(S(=O)(=O)NC2CCS(=O)(=O)C2)cc1 (stereo not drawn) [Compound 48, N-[4-(1,1-Dioxo-tetrahydro-1lambda*6*- thiophen-3-ylsulfamoyl)-phenyl]-2-(4-oxo-4H-quinazolin-3-yl)-acetamide] | < 4.60 |
| Cc1cccc2c(=O)n(CC(=O)Nc3ccc(S(=O)(=O)N(C)C)cc3)cnc12 [Compound 62, N-(4-Dimethylsulfamoyl-phenyl)-2-(8-methyl-4-oxo-4H-quinazolin-3-yl)-acetamide] | < 4.60 |
| CCN(CC)S(=O)(=O)c1ccc(Cl)c(NC(=O)Cn2cnc3ccccc3c2=O)c1 [Compound 93, N-(2-Chloro-5-diethylsulfamoyl-phenyl)-2-(4-oxo-4H-quinazolin-3-yl)-acetamide] | < 4.60 |
| CCn1c(=O)c2ccccc2n(CC(=O)NCCc2ccc(S(N)(=O)=O)cc2)c1=O [Compound 101, 2-(3-Ethyl-2,4-dioxo-3,4-dihydro-2H-quinazolin-1-yl)-N-[2-(4-sulfamoyl-phenyl)-ethyl]-acetamide] | < 4.60 |
| CCN(CC)S(=O)(=O)c1ccc2c(c1)CCN2Cc1nc2ccccc2c(=O)n1C [Compound 96, 1-(3-Methyl-4-oxo-3,4-dihydro-quinazolin-2-ylmethyl)-2,3-dihydro-1H-indole-5-sulfonic acid diethylamide] | < 4.60 |
| NS(=O)(=O)c1ccc(NC(=O)CCc2nc3ccccc3c(=O)[nH]2)cc1 [Compound 109, 3-(4-Oxo-3,4-dihydro-quinazolin-2-yl)-N-(4-sulfamoyl-phenyl)-propionamide] | < 4.60 |
| CCN(CC(=O)Nc1ccc(S(=O)(=O)N(CC)CC)cc1)Cc1nc2cc(Cl)ccc2c(=O)[nH]1 [Compound 75, 2-[(7-Chloro-4-oxo-3,4-dihydro-quinazolin-2-ylmethyl)-ethyl-amino]-N-(4-diethylsulfamoyl-phenyl)-acetamide] | < 4.60 |
| CCN(CC)S(=O)(=O)c1ccc(C)c(NC(=O)Cn2nnc3ccccc3c2=O)c1 [Compound 95, N-(5-Diethylsulfamoyl-2-methyl-phenyl)-2-(4-oxo-4H-benzo[d][1,2,3]triazin-3-yl)-acetamide] | < 4.60 |
| CCN(CC)S(=O)(=O)c1ccc(NC(=O)CNC(=O)c2cccc(S(=O)(=O)N(C)C)c2)cc1 [Compound 70, N-[(4-Diethylsulfamoyl-phenylcarbamoyl)-methyl]-3-dimethylsulfamoyl-benzamide] | < 4.60 |
| CCN(CC)S(=O)(=O)c1ccc(NC(=O)COC(=O)Cn2nnc3ccccc3c2=O)cc1 [Compound 81, (4-Oxo-4H-benzo[d][1,2,3]triazin-3-yl)-acetic acid (4-diethylsulfamoyl-phenylcarbamoyl)-methyl ester] | < 4.60 |
| CCN(CC)S(=O)(=O)c1ccc(NC(=O)Cn2cnc3cc(F)ccc3c2=O)cc1 [Compound 57, N-(4-Diethylsulfamoyl-phenyl)-2-(7-fluoro-4-oxo-4H-quinazolin-3-yl)-acetamide] | < 4.60 |
| CN(Cc1ccccc1)S(=O)(=O)c1ccc(NC(=O)Cn2cnc3ccccc3c2=O)cc1 [Compound 36, N-[4-(Benzyl-methyl-sulfamoyl)-phenyl]-2-(4-oxo-4H-quinazolin-3-yl)-acetamide] | < 4.60 |
| Cc1ccc(-n2c(CCC(=O)NCc3ccc(S(N)(=O)=O)cc3)nc3ccccc3c2=O)cc1 [Compound 137, 3-(4-Oxo-3-p-tolyl-3,4-dihydro-quinazolin-2-yl)-N-(4-sulfamoyl-benzyl)-propionamide] | < 4.60 |
| CCN(CC)S(=O)(=O)c1cc(C)c(C)c(NC(=O)Cn2cnc3ccccc3c2=O)c1 [Compound 90, N-(5-Diethylsulfamoyl-2,3-dimethyl-phenyl)-2-(4-oxo-4H-quinazolin-3-yl)-acetamide] | < 4.60 |
| Cc1ccc(S(=O)(=O)N(C)c2ccc(OC(=O)Cn3cnc4ccccc4c3=O)cc2)cc1C [Compound 117, (4-Oxo-4H-quinazolin-3-yl)-acetic acid 4-[(3,4-dimethyl-benzenesulfonyl)-methyl-amino]-phenyl ester] | < 4.60 |
| Cc1ccc(S(=O)(=O)N(C)C)cc1NC(=O)Cn1cnc2ccc(Cl)cc2c1=O [Compound 129, 2-(6-Chloro-4-oxo-4H-quinazolin-3-yl)-N-(5-dimethylsulfamoyl-2-methyl-phenyl)-acetamide] | < 4.60 |
| NS(=O)(=O)c1ccc(NC(=O)COC(=O)Cn2cnc3ccccc3c2=O)cc1 [Compound 111, (4-Oxo-4H-quinazolin-3-yl)-acetic acid (4-sulfamoyl-phenylcarbamoyl)-methyl ester] | < 4.60 |
